Active and inactive are the calls of the source. No rule for the calls is given here.
Test system: rodent lifetime carcinogenesis bioassay, tumor incidence TD50
Test: carcinogenic potency in animals, long-term in vivo studies, CPDB compilation (AID 1745844)

## S=C(NC1CCCCC1)NC1CCCCC1
mouse, strain B6C3F1, females, in feed, site: any site (literature study), lesion: several types, types named in the paper, dosed 109 weeks, study length 103 weeks
  TD50: 122000 mg/kg/day (inactive)
mouse, strain B6C3F1, females, in feed, site: lung, lesion: alveolar/bronchiolar adenoma + alveolar/bronchiolar carcinoma, dosed 109 weeks, study length 103 weeks
  TD50: 1.11e+08 mg/kg/day
mouse, strain B6C3F1, males, in feed, site: any site (literature study), lesion: several types, types named in the paper, dosed 109 weeks, study length 103 weeks
  carcinogen call: negative (inactive)
rat, strain Fischer 344, females, in feed, site: any site (literature study), lesion: several types, types named in the paper, dosed 109 weeks, study length 109 weeks
  carcinogen call: negative (inactive)
rat, strain Fischer 344, males, in feed, site: any site (literature study), lesion: several types, types named in the paper, dosed 109 weeks, study length 109 weeks
  TD50: 3910 mg/kg/day
rat, strain Fischer 344, males, in feed, site: liver, lesion: hepatocellular adenoma + hepatocellular carcinoma + neoplastic nodule, dosed 109 weeks, study length 109 weeks
  TD50: 15600 mg/kg/day
rat, strain Fischer 344, males, in feed, site: skin, lesion: basal-cell carcinoma, dosed 109 weeks, study length 109 weeks
  TD50: 26100 mg/kg/day
rat, strain Fischer 344, males, in feed, site: thyroid gland, lesion: c-cell adenoma, dosed 109 weeks, study length 109 weeks
  TD50: 5480 mg/kg/day (inactive)
rat, strain Fischer 344, males, in feed, site: thyroid gland, lesion: follicular-cell adenoma + follicular-cell carcinoma, dosed 109 weeks, study length 109 weeks
  TD50: 7410 mg/kg/day

## CC(O)CN(CC(C)O)N=O (centres undefined)
rat, strain Fischer 344, females, in drinking water, site: esophagus, lesion: carcinoma, dosed 42 weeks, study length 55 weeks
  TD50: 1.25 mg/kg/day
rat, strain Fischer 344, females, in drinking water, site: esophagus, lesion: several types, types named in the paper, dosed 42 weeks, study length 55 weeks
  TD50: 0.813 mg/kg/day
rat, strain Fischer 344, females, in drinking water, site: nasal cavity, lesion: olfactory carcinoma, dosed 42 weeks, study length 55 weeks
  TD50: 3.04 mg/kg/day
rat, strain MRC-Wistar, males, by gavage, site: prostate, lesion: carcinoma, dosed 74 weeks, study length 74 weeks
  TD50: 437 mg/kg/day
rat, strain Wistar, males, in drinking water, site: liver, lesion: hemangioma, dosed 45 weeks, study length 52 weeks
  TD50: 4.55 mg/kg/day
rat, strain Wistar, males, in drinking water, site: liver, lesion: hepatocellular carcinoma, dosed 45 weeks, study length 52 weeks
  TD50: 2.4 mg/kg/day
rat, strain Wistar, males, in drinking water, site: lung, lesion: adenocarcinoma, dosed 45 weeks, study length 52 weeks
  TD50: 3.36 mg/kg/day
rat, strain Wistar, males, in drinking water, site: lung, lesion: adenoma, dosed 45 weeks, study length 52 weeks
  TD50: 0.881 mg/kg/day
rat, strain Wistar, males, in drinking water, site: lung, lesion: carcinoma, combined glandular and squamous type, dosed 45 weeks, study length 52 weeks
  TD50: 9.48 mg/kg/day

## NC1CCCCC1
mouse, strain ASH-CS1, females, in feed, site: any site (literature study), lesion: several types, types named in the paper, dosed 80 weeks, study length 84 weeks
  carcinogen call: negative (inactive)
mouse, strain ASH-CS1, females, in feed, site: liver, lesion: nodular hyperplasia, dosed 80 weeks, study length 84 weeks
  carcinogen call: negative (inactive)
mouse, strain ASH-CS1, females, in feed, site: lung, lesion: adenoma, dosed 80 weeks, study length 84 weeks
  carcinogen call: negative (inactive)
mouse, strain ASH-CS1, males, in feed, site: any site (literature study), lesion: several types, types named in the paper, dosed 80 weeks, study length 84 weeks
  carcinogen call: negative (inactive)
mouse, strain ASH-CS1, males, in feed, site: liver, lesion: nodular hyperplasia, dosed 80 weeks, study length 84 weeks
  TD50: 231 mg/kg/day (inactive)
mouse, strain ASH-CS1, males, in feed, site: lung, lesion: adenocarcinoma, dosed 80 weeks, study length 84 weeks
  carcinogen call: negative (inactive)
mouse, strain ASH-CS1, males, in feed, site: lung, lesion: adenoma, dosed 80 weeks, study length 84 weeks
  carcinogen call: negative (inactive)
mouse, strain Swiss, females, in feed, site: urinary bladder, lesion: anaplastic carcinoma, dosed 91 weeks, study length 91 weeks
  carcinogen call: negative (inactive)
mouse, strain Swiss, males, in feed, site: urinary bladder, lesion: one or several types, types not named, dosed 91 weeks, study length 91 weeks
  carcinogen call: negative (inactive)
rat, strain Charles River albino, males, in feed, site: urinary bladder, lesion: transitional-cell carcinoma, dosed 104 weeks, study length 104 weeks
  TD50: 280 mg/kg/day
rat, strain FDRL, both sexes, in feed, site: any site (literature study), lesion: several types, types named in the paper, dosed 104 weeks, study length 104 weeks
  carcinogen call: negative (inactive)
rat, strain Sprague-Dawley, both sexes, in feed, site: any site (literature study), lesion: malignant tumor, dosed 130 weeks, study length 130 weeks
  carcinogen call: negative (inactive)
rat, strain Sprague-Dawley, both sexes, in feed, site: liver, lesion: liver-cell adenoma, dosed 130 weeks, study length 130 weeks
  TD50: 14500 mg/kg/day (inactive)
rat, strain Sprague-Dawley, both sexes, in feed, site: urinary bladder, lesion: one or several types, types not named, dosed 130 weeks, study length 130 weeks
  carcinogen call: negative (inactive)
rat, strain Wistar, females, in feed, site: liver, lesion: hemangioma, dosed 104 weeks, study length 104 weeks
  TD50: 1330 mg/kg/day (inactive)
rat, strain Wistar, males, in feed, site: liver, lesion: hemangioma, dosed 104 weeks, study length 104 weeks
  carcinogen call: negative (inactive)
rat, strain Wistar, males, in feed, site: liver, lesion: nodular hyperplasia, dosed 104 weeks, study length 104 weeks
  TD50: 47000 mg/kg/day (inactive)

## Nc1ccc2c(c1)C(=O)c1ccccc1C2=O
mouse, strain B6C3F1, females, in feed, site: all sites + liver, lesion: lymphoma + hepatocellular carcinoma, dosed 79 weeks, study length 94 weeks
  TD50: 1490 mg/kg/day
mouse, strain B6C3F1, females, in feed, site: all sites, lesion: lymphoma, dosed 79 weeks, study length 94 weeks
  TD50: 3160 mg/kg/day
mouse, strain B6C3F1, females, in feed, site: any site (literature study), lesion: several types, types named in the paper, dosed 79 weeks, study length 94 weeks
  TD50: 1620 mg/kg/day
mouse, strain B6C3F1, females, in feed, site: liver, lesion: hepatocellular adenoma + hepatocellular carcinoma + neoplastic nodule, dosed 79 weeks, study length 94 weeks
  TD50: 2820 mg/kg/day
mouse, strain B6C3F1, females, in feed, site: liver, lesion: hepatocellular carcinoma, dosed 79 weeks, study length 94 weeks
  TD50: 2820 mg/kg/day
mouse, strain B6C3F1, females, in feed, site: lung, lesion: alveolar/bronchiolar adenoma + alveolar/bronchiolar carcinoma, dosed 79 weeks, study length 94 weeks
  TD50: 33400 mg/kg/day
mouse, strain B6C3F1, males, in feed, site: any site (literature study), lesion: several types, types named in the paper, dosed 79 weeks, study length 93 weeks
  TD50: 952 mg/kg/day
mouse, strain B6C3F1, males, in feed, site: liver, lesion: hepatocellular adenoma + hepatocellular carcinoma + neoplastic nodule, dosed 79 weeks, study length 93 weeks
  TD50: 798 mg/kg/day
mouse, strain B6C3F1, males, in feed, site: liver, lesion: hepatocellular adenoma + hepatocellular carcinoma, dosed 79 weeks, study length 93 weeks
  TD50: 798 mg/kg/day
mouse, strain B6C3F1, males, in feed, site: liver, lesion: hepatocellular carcinoma, dosed 79 weeks, study length 93 weeks
  TD50: 755 mg/kg/day
mouse, strain B6C3F1, males, in feed, site: lung, lesion: alveolar/bronchiolar adenoma + alveolar/bronchiolar carcinoma, dosed 79 weeks, study length 93 weeks
  TD50: 19400 mg/kg/day
rat, strain Fischer 344, females, in feed, site: any site (literature study), lesion: several types, types named in the paper, dosed 78 weeks, study length 109 weeks
  TD50: 124 mg/kg/day (inactive)
rat, strain Fischer 344, males, in feed, site: any site (literature study), lesion: several types, types named in the paper, dosed 78 weeks, study length 106 weeks
  TD50: 759 mg/kg/day
rat, strain Fischer 344, males, in feed, site: liver, lesion: hepatocellular adenoma + hepatocellular carcinoma + neoplastic nodule, dosed 78 weeks, study length 106 weeks
  TD50: 101 mg/kg/day
rat, strain Fischer 344, males, in feed, site: liver, lesion: hepatocellular carcinoma + neoplastic nodule, dosed 78 weeks, study length 106 weeks
  TD50: 101 mg/kg/day
rat, strain Fischer 344, males, in feed, site: liver, lesion: hepatocellular carcinoma, dosed 78 weeks, study length 106 weeks
  TD50: 268 mg/kg/day

## C=C(F)F
rat, strain Sprague-Dawley, females, by gavage, site: fat, lesion: lipoma, dosed 52 weeks, study length 141 weeks
  TD50: 60.3 mg/kg/day
rat, strain Sprague-Dawley, females, by gavage, site: fat, lesion: liposarcoma, dosed 52 weeks, study length 141 weeks
  TD50: 122 mg/kg/day
rat, strain Sprague-Dawley, males, by gavage, site: fat, lesion: liposarcoma, dosed 52 weeks, study length 141 weeks
  TD50: 38.8 mg/kg/day
